From ChEMBL document CHEMBL1201862, “PubChem BioAssay data set” (2004)
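All cell lines were grown in 96-well plates and treated with compound for 48 hours. GI50 = concentration required for 50% inhibition of growth.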 Active and inactive are the calls of the source. Rule as the data show it: active = GI50 up to about 1.1 µM and inactive = higher.

How the values were obtained:
Assay in all cases: NCI-60 cell line screen, 48 h
DMS-114 = tested on: DMS-114
DLD-1 = tested on: DLD-1
KM12 = tested on: KM12
KM-20L2 = tested on: KM-20L2
A549 = tested on: A549
UACC-62 = tested on: UACC-62
SK-OV-3 = tested on: SK-OV-3
EKVX = tested on: EKVX
COLO 205 = tested on: COLO 205
ACHN = tested on: ACHN
IGROV-1 = tested on: IGROV-1
UO-31 = tested on: UO-31
TK-10 = tested on: TK-10
NCI-H460 = tested on: NCI-H460
NCI-H23 = tested on: NCI-H23
SW-620 = tested on: SW-620
SK-MEL-5 = tested on: SK-MEL-5
HOP-62 = tested on: HOP-62
OVCAR-4 = tested on: OVCAR-4
SNB-19 = tested on: SNB-19
LXFL 529 = tested on: LXFL 529
HOP-92 = tested on: HOP-92
HT-29 = tested on: HT-29
K562 = tested on: K562
OVCAR-8 = tested on: OVCAR-8
CCRF-CEM = tested on: CCRF-CEM
OVCAR-5 = tested on: OVCAR-5
SN12C = tested on: SN12C
RXF 631 = tested on: RXF 631
786-0 = tested on: 786-0
HOP-18 = tested on: HOP-18
LOX IMVI = tested on: LOX IMVI
SK-MEL-2 = tested on: SK-MEL-2
HCT-15 = tested on: HCT-15
SK-MEL-28 = tested on: SK-MEL-28
DMS-273 = tested on: DMS-273
RXF 393 = tested on: RXF 393
CAKI-1 = tested on: CAKI-1
Malme-3M = tested on: Malme-3M
SNB-75 = tested on: SNB-75
MOLT-4 = tested on: MOLT-4
NCI-H522 = tested on: NCI-H522
HL-60 = tested on: HL-60
M19-MEL = tested on: M19-MEL
UACC-257 = tested on: UACC-257
U-251 = tested on: U-251
OVCAR-3 = tested on: OVCAR-3
SF-295 = tested on: SF-295
SF-268 = tested on: SF-268
SF-539 = tested on: SF-539
RPMI-8226 = tested on: RPMI-8226
HCC 2998 = tested on: HCC 2998
M14 = tested on: M14
XF498 = tested on: XF498
SR = tested on: SR
A498 = tested on: A498
HCT-116 = tested on: HCT-116
SNB-78 = tested on: SNB-78
NCI-H226 = tested on: NCI-H226

## CCOP(=O)(Cc1ccc(CP(=O)(OCC)OCC)n1C)OCC
DMS-114
  GI50: > 100 µM (inactive)
DLD-1
  GI50: > 100 µM (inactive)
KM12
  GI50: > 100 µM (inactive)
KM-20L2
  GI50: > 100 µM (inactive)
A549
  GI50: > 100 µM (inactive)
UACC-62
  GI50: > 100 µM (inactive)
SK-OV-3
  GI50: > 100 µM (inactive)
EKVX
  GI50: > 100 µM (inactive)
COLO 205
  GI50: > 100 µM (inactive)
ACHN
  GI50: > 100 µM (inactive)
IGROV-1
  GI50: > 100 µM (inactive)
UO-31
  GI50: > 100 µM (inactive)
TK-10
  GI50: > 100 µM (inactive)
NCI-H460
  GI50: > 100 µM (inactive)
NCI-H23
  GI50: > 100 µM (inactive)
SW-620
  GI50: > 100 µM (inactive)
SK-MEL-5
  GI50: > 100 µM (inactive)
HOP-62
  GI50: > 100 µM (inactive)
OVCAR-4
  GI50: > 100 µM (inactive)
SNB-19
  GI50: > 100 µM (inactive)
LXFL 529
  GI50: > 100 µM (inactive)
HOP-92
  GI50: > 100 µM (inactive)
HT-29
  GI50: > 100 µM (inactive)
K562
  GI50: > 100 µM (inactive)
OVCAR-8
  GI50: > 100 µM (inactive)
CCRF-CEM
  GI50: > 100 µM (inactive)
OVCAR-5
  GI50: > 100 µM (inactive)
SN12C
  GI50: > 100 µM (inactive)
RXF 631
  GI50: > 100 µM (inactive)
786-0
  GI50: > 100 µM (inactive)
HOP-18
  GI50: 75 µM (inactive)
LOX IMVI
  GI50: > 100 µM (inactive)
SK-MEL-2
  GI50: > 100 µM (inactive)
HCT-15
  GI50: > 100 µM
SK-MEL-28
  GI50: > 100 µM (inactive)
DMS-273
  GI50: > 100 µM (inactive)
RXF 393
  GI50: > 100 µM (inactive)
CAKI-1
  GI50: > 100 µM (inactive)
Malme-3M
  GI50: > 100 µM (inactive)
SNB-75
  GI50: > 100 µM (inactive)
MOLT-4
  GI50: > 100 µM (inactive)
NCI-H522
  GI50: > 100 µM (inactive)
HL-60
  GI50: > 100 µM (inactive)
M19-MEL
  GI50: > 100 µM (inactive)
UACC-257
  GI50: > 100 µM (inactive)
U-251
  GI50: > 100 µM (inactive)
OVCAR-3
  GI50: > 100 µM (inactive)
SF-295
  GI50: > 100 µM (inactive)
SF-268
  GI50: > 100 µM (inactive)
SF-539
  GI50: > 100 µM (inactive)
RPMI-8226
  GI50: > 100 µM (inactive)
HCC 2998
  GI50: > 100 µM (inactive)
M14
  GI50: > 100 µM (inactive)

## N#Cc1ccccc1NC(=O)C(=O)C(C(=O)c1ccncc1)C1OC(=O)c2ccccc21 (stereo not drawn)
DMS-114
  GI50: > 100 µM (inactive)
XF498
  GI50: > 100 µM (inactive)
DLD-1
  GI50: > 100 µM (inactive)
KM12
  GI50: > 100 µM (inactive)
KM-20L2
  GI50: > 100 µM (inactive)
A549
  GI50: > 100 µM (inactive)
SR
  GI50: > 100 µM (inactive)
A498
  GI50: > 100 µM (inactive)
UACC-62
  GI50: > 100 µM (inactive)
SK-OV-3
  GI50: > 100 µM (inactive)
EKVX
  GI50: > 100 µM (inactive)
COLO 205
  GI50: > 100 µM (inactive)
ACHN
  GI50: > 100 µM (inactive)
IGROV-1
  GI50: > 100 µM (inactive)
UO-31
  GI50: > 100 µM (inactive)
TK-10
  GI50: > 100 µM (inactive)
NCI-H460
  GI50: > 100 µM (inactive)
NCI-H23
  GI50: > 100 µM (inactive)
SW-620
  GI50: > 100 µM (inactive)
SK-MEL-5
  GI50: > 100 µM (inactive)
HOP-62
  GI50: > 100 µM (inactive)
OVCAR-4
  GI50: > 100 µM (inactive)
SNB-19
  GI50: > 100 µM (inactive)
LXFL 529
  GI50: > 100 µM (inactive)
HOP-92
  GI50: > 100 µM (inactive)
HT-29
  GI50: > 100 µM (inactive)
HCT-116
  GI50: > 100 µM (inactive)
K562
  GI50: > 100 µM (inactive)
OVCAR-8
  GI50: > 100 µM (inactive)
CCRF-CEM
  GI50: 79.3 µM (inactive)
OVCAR-5
  GI50: > 100 µM (inactive)
SN12C
  GI50: > 100 µM (inactive)
RXF 631
  GI50: > 100 µM (inactive)
SNB-78
  GI50: > 100 µM (inactive)
786-0
  GI50: > 100 µM (inactive)
NCI-H226
  GI50: > 100 µM (inactive)
HOP-18
  GI50: > 100 µM (inactive)
LOX IMVI
  GI50: > 100 µM (inactive)
HCT-15
  GI50: > 100 µM
SK-MEL-28
  GI50: > 100 µM (inactive)
RXF 393
  GI50: > 100 µM (inactive)
CAKI-1
  GI50: > 100 µM (inactive)
Malme-3M
  GI50: > 100 µM (inactive)
SNB-75
  GI50: > 100 µM (inactive)
NCI-H522
  GI50: > 100 µM (inactive)
HL-60
  GI50: > 100 µM (inactive)
M19-MEL
  GI50: > 100 µM (inactive)
UACC-257
  GI50: > 100 µM (inactive)
U-251
  GI50: > 100 µM (inactive)
OVCAR-3
  GI50: > 100 µM (inactive)
SF-295
  GI50: > 100 µM (inactive)
SF-268
  GI50: > 100 µM (inactive)
SF-539
  GI50: > 100 µM (inactive)
HCC 2998
  GI50: > 100 µM (inactive)
M14
  GI50: > 100 µM (inactive)
